Our source for the IC50 and inhibition values is US12428395B2, “Heterocyclic compounds as kinase inhibitor and uses thereof” (SPEROGENIX THERAPEUTICS LIMITED, priority 2019, dated 2025).

Test [1] concerns THP1. The experiment in a line: Cell viability assay (resazurin), THP1. It is filed as cell-based. The settings on record: Homo sapiens, THP-1; THP1 peripheral blood cells. Here is the method:
(§1) Protocol for Cell Viability Assay in Different Cell Lines for CHK-1 Inhibitors:
(§2) Cells were allowed to grow at 37° C. for 24 hr (adherent cells) in 5% CO2 (culture conditions) in a Nuaire incubator (humidified). Following 24 hr (adherent cells), serially diluted compounds (100 μl) were added to the culture plate (immediately after plating in case of suspension cells) and the cultures were further incubated in culture conditions for 72-144 hr depending on the cell type. Experiment was terminated at the completion of respective incubation with drug by replacing the medium with 100 μl of 1 mM of resazurin (R7017; Sigma) prepared in culture medium and the plates were further incubated in culture conditions for 4 hr. In case of 144 hr incubation with the drug, the drug was replenished once with fresh medium after 72 hr. Fluorescence was then measured using a multimodal plate reader (Biotek Synergy Neo) at an excitation wavelength of 535 nm and emission wavelength of 590 nm to obtain relative fluorescence units. Data analysis was done by subtracting the background fluorescence (only medium blank) value from each reading and then normalizing with the vehicle control (DMSO treated cells) to obtain percent survival/proliferation. Percent survival at different doses was used to calculate IC50 by fitting the curve to the “four-parameter variable slope logistic model” using Prism Graph Pad.
For orientation: Resazurin is reduced to fluorescent resorufin, in cell work by metabolically active cells.

For test [2], the system named is HCT116. Briefly: Cell viability assay (resazurin), HCT116. It is filed as cell-based. The settings on record: Homo sapiens, HCT-116; HCT116 colorectal carcinoma cells. The method, then: as §1, §2
For test [3], the target named is CHK-1 kinase (Homo sapiens (Human), UniProt O14757). The experiment in a line: CHK-1 Kinase Assay (Z-LYTE based TR-FRET). The following applies: for inhibition at 0.1 µM: 0.1 μM compound, read-out: % Inhibition of CHK-1 enzyme activity @ 0.1 μM; for inhibition at 1 µM: 1 μM compound, read-out: % Inhibition of CHK-1 enzyme activity @ 1 μM; for inhibition at 5 µM: 5 μM compound, read-out: % Inhibition of CHK-1 enzyme activity @ 5 μM. It is filed as biochemical. Here is the method: IC50 values of compounds for inhibition of CHK-1 kinase or percent inhibition at defined concentrations were determined by Z-LYTE™ based TR-FRET assay. Kinase reactions were performed in a 10 μL volume in low-volume 384-well plates. The concentration of substrate (Ser Thr 19) was maintained at 2 μM in the assay, and the kinase reaction buffer consisted of 50 mM HEPES pH 7.5, 0.01% BRIJ-35, 10 mM MgCl2, 1 mM EGTA, 2 mM DTT. Serially diluted compounds (3-fold) in DMSO (0.5% in final reaction) were incubated with cocktail of CHK-1 kinase (5 ng/ml; Cat #P3040, ThermoFisher), substrate Ser Thr 19, (2 μM; Cat #PV4529, ThermoFisher), ATP (53 μM; Cat #PV3227, ThermoFisher) and buffer. Kinase reactions were allowed to proceed for 1 hour at room temperature after which 5 μL of a 1:256 dilution of Development Reagent A was added. The plate was allowed to incubate at room temperature for 60 minutes before being read on a BMG Pherastar plate reader using the Z-LYTE™ filter block for Z-LYTE™ TR-FRET. The resulting TR-FRET emission ratio was used to calculate percent inhibition by normalizing with the control using the following formula: — [% Inhibition=1−{(% Phosphorylationsample/% Phosphorylationcontrol (0% Inhibition)}·100] For calculation of IC50, the percent inhibition obtained was plotted against the concentration of inhibitor, and the data was fit to a sigmoidal dose-response curve with a variable slope. The IC50 was calculated from the curve.
Sequence of CHK-1 kinase (O14757 whole entry): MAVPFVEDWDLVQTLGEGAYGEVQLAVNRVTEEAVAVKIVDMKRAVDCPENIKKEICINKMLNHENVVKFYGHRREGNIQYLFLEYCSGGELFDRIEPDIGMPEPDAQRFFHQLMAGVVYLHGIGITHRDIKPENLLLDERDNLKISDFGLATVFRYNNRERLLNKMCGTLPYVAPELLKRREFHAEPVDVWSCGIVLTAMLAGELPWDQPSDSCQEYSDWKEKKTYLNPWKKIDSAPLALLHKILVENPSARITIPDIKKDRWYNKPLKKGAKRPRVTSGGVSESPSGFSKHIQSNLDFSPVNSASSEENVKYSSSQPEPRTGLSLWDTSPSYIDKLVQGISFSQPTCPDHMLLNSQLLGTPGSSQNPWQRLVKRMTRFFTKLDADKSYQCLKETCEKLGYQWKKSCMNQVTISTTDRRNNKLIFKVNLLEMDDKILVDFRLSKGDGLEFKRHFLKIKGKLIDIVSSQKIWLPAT
Background: Time-resolved FRET reads energy transfer from a long-lived donor to a nearby acceptor.

Test [4] deals with MDA_MB-231. Briefly: Cell viability assay (resazurin), MDA_MB-231. The following applies: Homo sapiens, MDA-MB-231; MDA_MB-231 TNBC cells. The test is classed as cell-based. Here is the method:
as §1, §2

For test [5], the system named is AsPC-1. The experiment in a line: Cell viability assay (resazurin), AsPC-1. The test is classed as cell-based. The following applies: Homo sapiens, ASPC1; AsPC-1 pancreatic cancer cells. Here is the method:
as §1, §2

In test [6] the test system is MiaPaCa-2. Briefly: Cell viability assay (resazurin), MiaPaCa-2. The test is classed as cell-based. The following applies: Homo sapiens, MIA PaCa-2; MiaPaCa-2 pancreatic cancer cells. Here is the method:
as §1, §2

Test [7] concerns HT-29. Briefly: Cell viability assay (resazurin), HT-29. The test is classed as cell-based. The following applies: Homo sapiens; HT-29 colon cancer cells. Here is the method: as §1, §2
For test [8], the system named is A549. Briefly: Cell viability assay (resazurin), A549. The test is classed as cell-based. The settings on record: Homo sapiens; A549 lung epithelial carcinoma cells. Here is the method:
as §1, §2

The test system of test [9] is MV-4-11. The experiment in a line: Cell viability assay (resazurin), MV-4-11. The test is classed as cell-based. The settings on record: Homo sapiens, MV4-11; MV-4-11 peripheral blood cells. Here is the method: as §1, §2
Test [10] addresses CHK-2 kinase (Homo sapiens (Human), UniProt O96017). Briefly: CHK-2 Kinase Assay (Z-LYTE based TR-FRET). The test is classed as biochemical. The settings on record: for inhibition at 0.1 µM: 0.1 μM compound, read-out: % Inhibition of CHK-2 enzyme activity @ 0.1 μM; for inhibition at 1 µM: 1 μM compound, read-out: % Inhibition of CHK-2 enzyme activity @ 1 μM. The method, then:
IC50 values of compounds for inhibition of CHK-2 kinase or percent inhibition at defined concentrations were determined by Z-LYTE™ based TR-FRET assay. Kinase reactions were performed in a 10 μL volume in low-volume 384-well plates. The concentration of substrate (Ser Thr 07) was maintained at 1 μM in the assay, and the kinase reaction buffer consisted of 50 mM HEPES pH 7.5, 0.01% BRIJ-35, 10 mM MgCl2, 1 mM EGTA. Serially diluted compounds (3-fold) in DMSO (0.5% in final reaction) were incubated with cocktail of CHK2 kinase (5 ng/ml; Cat #PV3367, ThermoFisher), substrate Ser Thr 07, (1 μM; Cat #PV3208, ThermoFisher), ATP (84 μM; Cat #PV3227, ThermoFisher) and buffer. Kinase reactions were allowed to proceed for 1 hour at room temperature after which 5 μL of a 1:45000 dilution of Development Reagent A was added. The plate was allowed to incubate at room temperature for 60 minutes before being read on a BMG Pherastar plate reader using the Z-LYTE™ filter block for Z-LYTE™ TR-FRET.
The resulting TR-FRET emission ratio was used to calculate percent inhibition by normalizing with the control using the following formula: — [% Inhibition=1−{(% Phosphorylationsample/% Phosphorylationcontrol (0% inhibition)}·100]
For calculation of IC50, the percent inhibition obtained was plotted against the concentration of inhibitor, and the data was fit to a sigmoidal dose-response curve with a variable slope. The IC50 was calculated from the curve.

Test [11] has as its system Panc-10.05. Briefly: Cell viability assay (resazurin), Panc-10.05. It is filed as cell-based. The settings on record: Homo sapiens, Panc1005; Panc-10.05 cells. The method, then: as §1, §2

The structures appear in SMILES notation.

Sequence of CHK-2 kinase (O96017 whole entry): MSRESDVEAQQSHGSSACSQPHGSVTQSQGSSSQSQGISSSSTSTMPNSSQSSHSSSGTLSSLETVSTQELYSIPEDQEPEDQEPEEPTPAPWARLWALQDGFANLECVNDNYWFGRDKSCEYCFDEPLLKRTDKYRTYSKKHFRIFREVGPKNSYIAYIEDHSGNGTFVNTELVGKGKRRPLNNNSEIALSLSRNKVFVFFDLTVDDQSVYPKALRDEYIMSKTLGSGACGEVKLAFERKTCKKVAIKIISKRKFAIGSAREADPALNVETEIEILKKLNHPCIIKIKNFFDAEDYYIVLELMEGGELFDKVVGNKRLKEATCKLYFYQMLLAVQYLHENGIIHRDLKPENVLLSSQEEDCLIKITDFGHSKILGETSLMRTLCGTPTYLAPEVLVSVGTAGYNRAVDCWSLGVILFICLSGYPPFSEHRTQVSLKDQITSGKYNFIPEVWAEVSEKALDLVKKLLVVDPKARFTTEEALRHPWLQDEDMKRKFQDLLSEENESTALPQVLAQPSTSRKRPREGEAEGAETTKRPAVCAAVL

For the compound `CNC(=O)c1nnc(Nc2cnc(C#N)cn2)cc1NCC1CNCCO1` (stereo not drawn) [1.11, 6-(5-cyanopyrazin-2-ylamino)-N-methyl-4-(morpholin-2-ylmethylamino)pyridazine-3-carboxamide], the IC50 – broadly, the concentration at which inhibition is half-maximal – was found to be 4.24 µM in test [1]; 17.2 µM in test [2]; 13 µM in [4]; 6.41 µM in [5]; 13.4 µM in test [6]; 14.9 µM in test [7]. Also, the values for the IC50 in [8] and in test [9] were 11.4 µM and 5.4 µM, respectively. In test [3], the inhibition (as a rule, the percentage by which the read-out fell short of the control) at 0.1 µM turned out to be 91%. The inhibition at 1 µM in [3] is 100%. Further, the inhibition at 5 µM in test [3] was 100%.
In the case of `CNC(=O)c1nnc(Nc2cnc(C#N)cn2)cc1NCC1CCN(C)CC1` [1.19, 6-(5-cyanopyrazin-2-ylamino)-N-methyl-4-((1-methylpiperidin-4-yl)methylamino)pyridazine-3-carboxamide], the IC50 in test [1] turned out to be 13.1 µM. Moreover, in test [3], the inhibition at 0.1 µM is 49%, the inhibition at 1 µM turned out to be 90% and the inhibition at 5 µM amounted to 99%. Moreover, the IC50 in [5] is 8.45 µM. In test [6], the IC50 worked out at 26.2 µM.
Consider `N#Cc1cnc(Nc2cc(NCC3CNCCO3)c(C(=O)NC3CC3)nn2)cn1` (stereo not drawn) [1.12, 6-(5-cyanopyrazin-2-ylamino)-N-cyclopropyl-4-(morpholin-2-ylmethylamino)pyridazine-3-carboxamide], for which the IC50 was 11.7 µM in test [1], 12.9 µM in test [5], 23.2 µM in test [6] and greater than 30 µM in test [7]. In addition, the inhibition at 0.1 µM in test [3] is 63%. In addition, in test [3], the inhibition at 1 µM worked out at 96%. For the same compound, the inhibition at 5 µM in [3] was 98%.
Consider `CNC(=O)c1nnc(Nc2cnc(C#N)cn2)cc1NC[C@H]1CNCCO1` (stereo in doubt) [1.35, 6-(5-cyanopyrazin-2-ylamino)-N-methyl-4-(morpholin-2-ylmethylamino)pyridazine-3-carboxamide], for which the IC50 in test [1] was determined as 6.23 µM; in test [2] it was 17.2 µM; in test [4], 15.5 µM; in [5] it was 11.6 µM; in test [6], 10.2 µM; in test [7], 14.5 µM. For the same compound, the IC50 in [8] was greater than 30 µM; in [9], 5.38 µM. Further, the inhibition at 0.1 µM in test [3] stood at 86%. For the same compound, the inhibition at 1 µM in [3] was determined as 100%. In test [3], the inhibition at 5 µM is 100%.
As for `N#Cc1cnc(Nc2cc(NCC3CNCCO3)c(C(F)(F)F)nn2)cn1` (stereo not drawn) [1.7, 2-((6-(5-cyanopyrazin-2-ylamino)-3-(trifluoromethyl)pyridazin-4-ylamino)methyl)morpholin-4-ium 2,2,2-trifluoroacetate], the concentration for half-maximal inhibition (IC50) in [1], in test [6] and in test [7] was greater than 30 µM throughout.
As for `N#Cc1cnc(Nc2cc(NCC3CCNCC3)c(-c3ccccc3)nn2)cn1` [1.1, 5-((6-phenyl-5-((piperidin-4-ylmethyl)amino)pyridazin-3-yl)amino)pyrazine-2-carbonitrile], the half-maximal inhibitory concentration (IC50) in test [2] is greater than 30 µM. Besides, in [3], the inhibition at 1 µM stood at 15% and the inhibition at 5 µM was found to be 32%.
On to `CNC(=O)c1nnc(Nc2cnc(C#N)cn2)cc1NC[C@@H]1CNCCO1` (stereo in doubt) [1.34, 6-(5-cyanopyrazin-2-ylamino)-N-methyl-4-(morpholin-2-ylmethylamino)pyridazine-3-carboxamide], for which the IC50 in [1] turned out to be 9.79 µM; in test [2] it was 27.9 µM; in [4], 12.4 µM; in test [5] it was 13.2 µM; in [6], 10.8 µM; in test [7] it was 16.9 µM. The figures for the IC50 in test [8] and in test [9] were greater than 30 µM and 7 µM, respectively. Besides, in [3], the inhibition at 0.1 µM stood at 77%. Moreover, the inhibition at 1 µM in test [3] came out at 96%. Besides, the inhibition at 5 µM in test [3] was 99%.
As to `N#Cc1cnc(Nc2cc(NCC3CCNCC3)c(C(N)=O)nn2)cn1` [1.3, 6-((5-cyanopyrazin-2-yl)amino)-4-((piperidin-4-ylmethyl)amino)pyridazine-3-carboxamide], the IC50 in test [1] was greater than 30 µM; in [2], greater than 30 µM; in test [3] it was 0.092 µM; in [4], greater than 30 µM; in [5] it was greater than 30 µM; in test [11], greater than 30 µM. The IC50 in [6], in [7] and in test [8] was greater than 30 µM in each case. Further, the figures for the inhibition at 1 µM in test [3] and in test [10] were 93% and 36.7%, respectively. For the same compound, the inhibition at 5 µM in test [3] is 98%. Moreover, in [10], the inhibition at 0.1 µM stood at 12.1%.
As for `N#Cc1cnc(Nc2cc(NCC3CNCCO3)c(C(N)=O)nn2)cn1` (stereo not drawn) [1.2, 6-((5-cyanopyrazin-2-yl)amino)-4-((morpholin-2-ylmethyl)amino)pyridazine-3-carboxamide], the IC50 in [1] is greater than 30 µM; in test [2] it was greater than 30 µM; in test [3] it was 0.07 µM; in test [4], greater than 30 µM; in test [5] it was greater than 30 µM; in test [11], greater than 30 µM. The IC50 in test [6], in test [7] and in test [8] was greater than 30 µM throughout. Besides, the inhibition at 1 µM in test [3] turned out to be 96%; in [10], 30%. The inhibition at 5 µM in test [3] was 100%. Further, the inhibition at 0.1 µM in test [10] came out at 8.28%.
With `CN1CCC(Nc2cc(Nc3cnc(C#N)cn3)nnc2C(N)=O)CC1` [1.20, 6-(5-cyanopyrazin-2-ylamino)-4-(1-methylpiperidin-4-ylamino)pyridazine-3-carboxamide], the IC50 in test [1] came to 21.8 µM; in [5], 11.9 µM; in test [6], 23.5 µM. Moreover, the inhibition at 0.1 µM in [3] turned out to be 61%. In test [3], the inhibition at 1 µM turned out to be 93%. The inhibition at 5 µM in test [3] came out at 100%.
